In patent US20100278847A1, “MUTUALLY SUPPRESSIVE GENE/INHIBITOR COMBINATIONS FOR NON-ANTIBIOTIC SELECTION OF RECOMBINANT STRAINS” (priority 2007, published 2010):

What was measured:
DH5α/pFab = test: Cell viability, SYTOX green staining flow cytometry; assay type: cell-based, E. coli; settings: 0.5-2 μM triclosan, overnight culture
Protocol: DH5α/pFab were grown overnight in the absence or presence of 0.5-2 μM triclosan and subjected to SYTOX green staining flow cytometry, as previously described (Roth et al. 1997). DH5α/pUC19 was included as a control for green fluorescence of live and heat-treated dead cells. Samples were excited with a 488 nm air-cooled argon ion laser in the CyFlow SL flow cytometer (Partec GmbH). Threshold settings were enabled on forward scatter to exclude cell debris. The forward and side scatter dot plot was used to identify and gate cell populations. Fluorescence was measured at 520 nm Viable and dead cell populations were counted using the Partec FloMax software version 2.4e.

DH5α = test: Growth rate from exponential phase (OD550 over time); assay type: cell-based, E. coli; settings: media containing 0-2 μM triclosan
Protocol: Growth rate was calculated from the exponential phase of growth, which was monitored as increased OD550 over time by the VERSAmax spectrophotometer (Molecular Devices). An overnight culture (16 h), standardized by OD550 to yield approximately 7×10^5 cfu/ml, was grown in 200 μl volumes per well in a 96-well plate for 24 h with agitation for 5 s every 5 min, when OD550 readings were taken. Triclosan dissolved in DMSO was added to give 0-2 μM Triclosan and 1% DMSO final concentrations.

[1] = cited from earlier work

In the case of `Oc1cc(Cl)ccc1Oc1ccc(Cl)cc1Cl` [triclosan], the “Proportion of green fluorescent (dead) cells in DH5α/pFab culture” value (DH5α/pFab) is listed as “decreased with increasing triclosan concentrations”, the “Triclosan concentration at which growth rates of pUCFA and pFab clones were highest” value (DH5α) is listed as 1 μM and the Solubility in water [1] is listed as “poor solubility in water”.
